Laboratory results from ChEMBL document CHEMBL5705893, “Targeting the mitotic checkpoint for cancer therapy with NMS-P715, an inhibitor of MPS1 kinase” (Cancer Res, 2010).
The source made the active and inactive calls. No cut-off for these calls is given here.

What was measured:
A2780 [1] = experiment: Induction of apoptosis in human A2780 cells assessed as effect on histone H2AX phosphorylation 0.2 to 1 micromol/L incubated for 2 to 72 hrs by Western blot analysis; format: functional, cell-based; conditions: dose 0.2-1 µmol/L, time 2-72 hrs
RERF-LC-AI = experiment: Antiproliferative activity against human RERF-LC-AI cells assessed as inhibition of cell growth incubated for 72 hrs by celltiter-glo assay; format: functional, cell-based
Activated CDC42 kinase 1 = Activated CDC42 kinase 1 (Homo sapiens, UniProt Q07912); experiment: Inhibition of recombinant ACK1 (unknown origin)
Activated CDC42 kinase 1, sequence (Q07912 whole entry): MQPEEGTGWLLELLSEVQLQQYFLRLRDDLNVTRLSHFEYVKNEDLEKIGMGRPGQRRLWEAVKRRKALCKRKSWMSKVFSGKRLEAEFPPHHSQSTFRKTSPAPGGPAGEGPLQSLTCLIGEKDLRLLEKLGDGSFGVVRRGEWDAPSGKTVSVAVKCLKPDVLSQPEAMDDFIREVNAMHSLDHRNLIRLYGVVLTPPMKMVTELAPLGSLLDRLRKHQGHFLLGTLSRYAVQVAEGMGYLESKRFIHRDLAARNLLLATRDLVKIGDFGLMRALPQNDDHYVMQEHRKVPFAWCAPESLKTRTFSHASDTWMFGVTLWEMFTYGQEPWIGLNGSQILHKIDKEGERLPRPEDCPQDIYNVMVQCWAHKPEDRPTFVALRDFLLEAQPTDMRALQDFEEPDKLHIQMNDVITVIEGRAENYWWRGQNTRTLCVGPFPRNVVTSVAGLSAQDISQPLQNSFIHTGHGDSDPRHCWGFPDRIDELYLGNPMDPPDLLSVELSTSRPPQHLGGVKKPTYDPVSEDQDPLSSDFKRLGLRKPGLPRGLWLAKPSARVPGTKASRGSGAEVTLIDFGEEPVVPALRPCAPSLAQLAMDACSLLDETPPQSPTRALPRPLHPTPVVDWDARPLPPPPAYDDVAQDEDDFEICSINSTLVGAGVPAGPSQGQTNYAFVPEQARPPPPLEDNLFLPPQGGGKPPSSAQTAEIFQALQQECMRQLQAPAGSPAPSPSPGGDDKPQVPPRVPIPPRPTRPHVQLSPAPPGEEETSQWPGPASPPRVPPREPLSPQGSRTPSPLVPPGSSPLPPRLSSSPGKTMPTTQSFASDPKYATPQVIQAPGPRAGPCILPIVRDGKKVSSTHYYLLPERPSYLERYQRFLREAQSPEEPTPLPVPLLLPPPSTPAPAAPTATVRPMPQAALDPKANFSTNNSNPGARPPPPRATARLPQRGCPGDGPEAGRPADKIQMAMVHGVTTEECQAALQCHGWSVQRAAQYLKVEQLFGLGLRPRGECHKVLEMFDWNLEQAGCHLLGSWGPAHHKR

HCT-116 = experiment: Cell cycle arrest in human HCT-116 cells assessed as accumulation of cells at G2/M phase at 0.2 to 1 micromol/L incubated for 48 hrs by FACS/PI staining based flow cytometric analysis; format: functional; conditions: dose 0.2-1 µmol/L
[2] = biological target: Serine/threonine-protein kinase PLK2 (Homo sapiens, UniProt Q9NYY3); experiment: Inhibition of recombinant PLK2 (unknown origin)
Serine/threonine-protein kinase PLK2, sequence (Q9NYY3 whole entry): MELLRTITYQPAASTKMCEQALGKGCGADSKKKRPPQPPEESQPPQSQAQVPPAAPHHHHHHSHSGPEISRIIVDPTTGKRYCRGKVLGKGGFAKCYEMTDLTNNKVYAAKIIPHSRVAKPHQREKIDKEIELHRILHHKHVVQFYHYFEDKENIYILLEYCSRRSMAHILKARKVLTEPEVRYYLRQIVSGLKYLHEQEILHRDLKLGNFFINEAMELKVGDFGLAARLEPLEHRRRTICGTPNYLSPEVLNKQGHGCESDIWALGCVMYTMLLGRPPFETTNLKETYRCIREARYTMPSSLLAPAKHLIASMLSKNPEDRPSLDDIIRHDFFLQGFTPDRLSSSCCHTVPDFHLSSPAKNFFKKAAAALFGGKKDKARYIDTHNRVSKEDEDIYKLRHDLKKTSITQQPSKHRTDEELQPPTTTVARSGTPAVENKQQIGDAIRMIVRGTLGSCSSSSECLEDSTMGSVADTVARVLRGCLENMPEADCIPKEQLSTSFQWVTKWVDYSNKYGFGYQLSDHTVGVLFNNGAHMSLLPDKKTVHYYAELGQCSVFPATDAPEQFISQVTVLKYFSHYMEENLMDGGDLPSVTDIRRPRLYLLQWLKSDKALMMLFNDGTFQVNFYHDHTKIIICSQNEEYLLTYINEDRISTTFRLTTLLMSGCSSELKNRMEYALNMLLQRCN

SNB-19 = experiment: Antiproliferative activity against human SNB-19 cells assessed as inhibition of cell growth incubated for 72 hrs by celltiter-glo assay; format: functional, cell-based; conditions: SNB-19, 72 h
[3] = biological target: Fibroblast growth factor receptor 1 (Homo sapiens, UniProt P11362); experiment: Inhibition of recombinant FGFR1 (unknown origin)
Fibroblast growth factor receptor 1, sequence (P11362 whole entry): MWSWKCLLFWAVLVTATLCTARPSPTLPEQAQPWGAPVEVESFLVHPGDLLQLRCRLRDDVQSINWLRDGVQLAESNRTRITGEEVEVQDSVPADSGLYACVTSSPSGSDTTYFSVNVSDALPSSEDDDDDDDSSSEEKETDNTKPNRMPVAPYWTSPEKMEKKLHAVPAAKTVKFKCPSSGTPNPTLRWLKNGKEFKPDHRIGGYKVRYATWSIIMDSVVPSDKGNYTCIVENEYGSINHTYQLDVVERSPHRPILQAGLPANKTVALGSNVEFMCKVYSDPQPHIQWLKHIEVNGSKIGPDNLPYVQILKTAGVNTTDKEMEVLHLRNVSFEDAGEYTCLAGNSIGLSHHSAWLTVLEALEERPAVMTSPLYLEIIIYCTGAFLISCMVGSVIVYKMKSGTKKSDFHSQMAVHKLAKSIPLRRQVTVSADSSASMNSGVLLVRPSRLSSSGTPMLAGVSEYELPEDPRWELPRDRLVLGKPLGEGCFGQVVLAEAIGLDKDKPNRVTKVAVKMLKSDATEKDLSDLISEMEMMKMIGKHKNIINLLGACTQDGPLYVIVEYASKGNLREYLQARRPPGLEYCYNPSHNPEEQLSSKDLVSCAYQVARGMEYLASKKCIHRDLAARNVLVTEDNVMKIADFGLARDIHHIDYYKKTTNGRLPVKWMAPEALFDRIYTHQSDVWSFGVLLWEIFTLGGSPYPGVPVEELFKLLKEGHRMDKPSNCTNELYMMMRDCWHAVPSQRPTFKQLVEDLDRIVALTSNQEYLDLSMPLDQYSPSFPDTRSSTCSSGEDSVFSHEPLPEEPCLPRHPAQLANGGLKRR

[4] = biological target: Tyrosine-protein kinase JAK1 (Homo sapiens, UniProt P23458); experiment: Inhibition of recombinant JAK1 (unknown origin)
Tyrosine-protein kinase JAK1, sequence (P23458 whole entry): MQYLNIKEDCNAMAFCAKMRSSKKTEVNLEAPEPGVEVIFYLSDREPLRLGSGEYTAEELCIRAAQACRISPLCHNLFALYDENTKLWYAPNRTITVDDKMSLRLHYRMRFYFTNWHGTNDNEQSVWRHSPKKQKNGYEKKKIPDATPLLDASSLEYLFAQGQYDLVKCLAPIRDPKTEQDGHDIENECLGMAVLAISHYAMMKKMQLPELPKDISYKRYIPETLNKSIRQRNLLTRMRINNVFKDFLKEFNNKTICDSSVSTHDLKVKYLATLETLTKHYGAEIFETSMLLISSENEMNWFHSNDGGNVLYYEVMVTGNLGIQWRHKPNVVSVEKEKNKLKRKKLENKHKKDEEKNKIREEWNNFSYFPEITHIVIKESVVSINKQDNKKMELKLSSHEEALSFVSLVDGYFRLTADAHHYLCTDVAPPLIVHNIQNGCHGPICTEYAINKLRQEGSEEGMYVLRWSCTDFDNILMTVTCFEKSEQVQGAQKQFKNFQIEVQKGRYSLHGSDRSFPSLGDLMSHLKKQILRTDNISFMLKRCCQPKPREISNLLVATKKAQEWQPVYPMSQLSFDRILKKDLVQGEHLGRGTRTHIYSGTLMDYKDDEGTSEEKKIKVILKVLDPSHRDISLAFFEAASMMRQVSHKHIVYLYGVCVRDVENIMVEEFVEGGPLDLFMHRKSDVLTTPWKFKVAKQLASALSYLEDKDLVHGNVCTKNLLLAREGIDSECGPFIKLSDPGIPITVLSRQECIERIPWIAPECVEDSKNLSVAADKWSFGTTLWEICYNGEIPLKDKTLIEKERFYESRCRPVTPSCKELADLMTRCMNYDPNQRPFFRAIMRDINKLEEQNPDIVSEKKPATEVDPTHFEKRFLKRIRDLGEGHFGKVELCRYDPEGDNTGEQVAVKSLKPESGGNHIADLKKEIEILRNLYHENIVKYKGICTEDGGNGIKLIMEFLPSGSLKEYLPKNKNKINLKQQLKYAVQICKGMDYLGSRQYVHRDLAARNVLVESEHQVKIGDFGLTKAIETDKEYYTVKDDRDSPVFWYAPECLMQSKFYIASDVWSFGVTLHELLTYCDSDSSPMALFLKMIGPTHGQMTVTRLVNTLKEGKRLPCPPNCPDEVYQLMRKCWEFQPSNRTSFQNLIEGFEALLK

HeLa = experiment: Induction of mitotic arrest in human nocodazole-arrested HeLa cells assessed as delocalization of MAD1 at 1 micromol/L in presence of MG132; format: functional, cell-based; conditions: dose 1.0 µmol/L
[5] = Inhibition of recombinant PDGFR (unknown origin); set-up: species or system Homo sapiens
[6] = Half life in Athymic nu-nu mouse at 100 mg/kg, po measured upto 24 hrs by LC-MS/MS analysis; format: ADME, organism-based; conditions: in vivo
A2780 [7] = experiment: Cell cycle arrest in human A2780 cells assessed as accumulation of cells at G2/M phase at 0.2 to 1 micromol/L incubated for 24 hrs by FACS/PI staining based flow cytometric analysis; format: functional; conditions: dose 0.2-1 µmol/L
SK-OV-3 = experiment: Antiproliferative activity against human SK-OV-3 cells assessed as inhibition of cell growth incubated for 72 hrs by celltiter-glo assay; format: functional, cell-based; conditions: SK-OV-3, 72 h
UO-31 = experiment: Antiproliferative activity against human UO-31 cells assessed as inhibition of cell growth incubated for 72 hrs by celltiter-glo assay; format: functional, cell-based; conditions: UO-31, 72 h

IC50 (Activated CDC42 kinase 1): > 10 µM
IC50 [2]: > 10 µM
IC50 [3]: > 10 µM
IC50 [4]: > 10 µM
IC50 [5]: > 10 µM
half-life [6]: 16.8 h
IC50 (SK-OV-3): 4.26 µM
Compound: CCc1cccc(CC)c1NC(=O)c1nn(C)c2c1CCc1cnc(Nc3ccc(C(=O)NC4CCN(C)CC4)cc3OC(F)(F)F)nc1-2
Activity (A2780 [1]): Active
IC50 (RERF-LC-AI): 2.07 µM
Activity (HCT-116): Active
IC50 (SNB-19): 6.93 µM
Activity (HeLa): Active
Activity (A2780 [7]): Active
IC50 (UO-31): 3.62 µM
